Results reported in patent publication US20190054103A1, “METHOD OF TREATMENT OF TP53 WILD-TYPE TUMORS WITH 2',2'-DIFLUORO-5-AZA-2'-DEOXYCYTIDINE OR PRODRUGS THEREOF” (priority 2016, published 2019).

Assays:
[1] = system: TP53 WT colon cancer cell line LoVo; test: CellTiter-Glo growth inhibition, LoVo; format: cell-based; settings: Homo sapiens, 72-hour exposure, FIG. 2
Protocol: Two examples of additional comparisons are provided below for colon cancer cell lines (TP53 WT colon cancer cell line Ls174T and TP53 WT colon cancer cell line LoVo).
In these assays, two 96 well plates of each cell line were seeded with 5,000 cells per well in a total volume of […] per well and left incubating overnight. The following day, the cells were exposed to different concentrations of NUC013. At the end of a 72-hour exposure period, the plates were removed for CellTiter-Glo® assay. Luminescence was recorded on a Synergy 4.0.

SK-OV-3 = test: NCI 60 Cell Line Panel growth inhibition; format: cell-based, human; settings: SK-OV-3, Ovarian cancer, TP53 null/mutant
Source text: (§1) The NCI-60 Cell Line Panel was assembled by the National Cancer Institute as an in vitro anticancer drug screen. The panel comprises human cancer cell lines representing nine different tissues of origin: breast, colon, central nervous system, renal, lung, melanoma, ovarian, prostate, and hematogenous. […] See, e.g., Leroy et al. “Analysis of TP53 Mutation Status in Human Cancer Cell Lines: a Reassesment” Hum Mutat 2014 35(6): 756-765.

CCRF-CEM = test: NCI 60 Cell Line Panel growth inhibition; format: cell-based, human; settings: Leukemia, TP53 null/mutant
Source text: as §1

LOX IMVI = test: NCI 60 Cell Line Panel growth inhibition; format: cell-based, human; settings: Melanoma, TP53 wild type
Source text: as §1

SK-MEL-2 = test: NCI 60 Cell Line Panel growth inhibition; format: cell-based, human; settings: SK-MEL-2, Melanoma, TP53 null/mutant
Source text: as §1

SK-MEL-28 = test: NCI 60 Cell Line Panel growth inhibition; format: cell-based, human; settings: SK-MEL-28, Melanoma, TP53 null/mutant
Source text: as §1

RPMI-8226 = test: NCI 60 Cell Line Panel growth inhibition; format: cell-based, human; settings: RPMI-8226, Leukemia, TP53 null/mutant
Source text: as §1

HS 578T = test: NCI 60 Cell Line Panel growth inhibition; format: cell-based, human; settings: Breast cancer, TP53 null/mutant
Source text: as §1

NCI-H23 = test: NCI 60 Cell Line Panel growth inhibition; format: cell-based, human; settings: NCI-H23, Lung-NSCL, TP53 null/mutant
Source text: as §1

M14 = test: NCI 60 Cell Line Panel growth inhibition; format: cell-based, human; settings: M14, Melanoma, TP53 null/mutant
Source text: as §1

NCI-H322M = test: NCI 60 Cell Line Panel growth inhibition; format: cell-based, human; settings: Lung-NSCL, TP53 null/mutant
Source text: as §1

CAKI-1 = test: NCI 60 Cell Line Panel growth inhibition; format: cell-based, human; settings: CAKI-1, Renal cancer, TP53 wild type
Source text: as §1

NCI-H522 = test: NCI 60 Cell Line Panel growth inhibition; format: cell-based, human; settings: NCI-H522, Lung-NSCL, TP53 null/mutant
Source text: as §1

SW-620 = test: NCI 60 Cell Line Panel growth inhibition; format: cell-based, human; settings: SW-620, Colon cancer, TP53 null/mutant
Source text: as §1

DU-145 = test: NCI 60 Cell Line Panel growth inhibition; format: cell-based, human; settings: DU-145, Prostate cancer, TP53 null/mutant
Source text: as §1

MCF7 = test: NCI 60 Cell Line Panel growth inhibition; format: cell-based, human; settings: MCF7, Breast cancer, TP53 wild type
Source text: as §1

ACHN = test: NCI 60 Cell Line Panel growth inhibition; format: cell-based, human; settings: Renal cancer, TP53 wild type
Source text: as §1

OVCAR-4 = test: NCI 60 Cell Line Panel growth inhibition; format: cell-based, human; settings: OVCAR-4, Ovarian cancer, TP53 null/mutant
Source text: as §1

A549/ATCC = test: NCI 60 Cell Line Panel growth inhibition; format: cell-based, human; settings: Lung-NSCL, TP53 wild type
Source text: as §1

[2] = system: LoVo (colon cancer, TP WT); test: Xenograft model, nude mice implanted with LoVo; settings: for mean tumor volumes compared to saline control: study days 9 through 51, FIG. 3B
NCI 60 Cell Line Panel = test: NCI 60 Cell Line Panel, summary by TP53 status (2×2 contingency tables); format: cell-based, human
Source text: as §1

[3] = TP53 (WT) cell lines of NCI 60 cell panel
[4] = TP53 (null/mutant) cell lines of NCI 60 cell panel

## Nc1ncn([C@@H]2O[C@H](CO)[C@@H](O)C2(F)F)c(=O)n1 [NUC013, 4-amino-1-((2R,4R,5R)-3,3-difluoro-4-hydroxy-5-(hydroxymethyl)tetrahydrofuran-2-yl)-1,3,5-triazin-2(1H)-one]
[1]
  GI50: 3000 nM
SK-OV-3
  Growth (%) at 10 μM: 71.09%
CCRF-CEM
  Growth (%) at 10 μM: 23.67%
LOX IMVI
  Growth (%) at 10 μM: 34.53%
SK-MEL-2
  Growth (%) at 10 μM: 104.47%
SK-MEL-28
  Growth (%) at 10 μM: 78.46%
RPMI-8226
  Growth (%) at 10 μM: 39.24%
HS 578T
  Growth (%) at 10 μM: 90.37%
NCI-H23
  Growth (%) at 10 μM: 30.61%
M14
  Growth (%) at 10 μM: 15.55%
NCI-H322M
  Growth (%) at 10 μM: 70.00%
CAKI-1
  Growth (%) at 10 μM: 27.86%
NCI-H522
  Growth (%) at 10 μM: 86.91%
SW-620
  Growth (%) at 10 μM: 51.21%
DU-145
  Growth (%) at 10 μM: 43.48%
MCF7
  Growth (%) at 10 μM: 20.74%
ACHN
  Growth (%) at 10 μM: 7.28%
OVCAR-4
  Growth (%) at 10 μM: 94.88%
A549/ATCC
  Growth (%) at 10 μM: 37.91%
[2]; 5.8 mg/kg
  survival compared to saline controls: no difference in survival
[2]; 5.8 mg/kg, 8 days following the end of treatment
  mean tumor weight lower compared to controls: 24.3%
[2]; 20 mg/kg
  mean tumor volumes compared to saline control: significantly lower
[2]; 40 mg/kg
  mean tumor volumes compared to saline control: significantly lower
NCI 60 Cell Line Panel; Homo sapiens, 60 cell, 10 μM, read-out: Inhibition of growth of hematogenous tumor cell lines
  inhibition at 10 µM: > 50%
NCI 60 Cell Line Panel; [3]
  Number of cell lines with >50% growth inhibition at 10 μM: 11
  Number of cell lines with ≤50% growth inhibition at 10 μM: 4
NCI 60 Cell Line Panel; [4]
  Number of cell lines with >50% growth inhibition at 10 μM: 13
  Number of cell lines with ≤50% growth inhibition at 10 μM: 27
